Results: paper PMC4886532, “A highly soluble, non-phototoxic, non-fluorescent blebbistatin derivative” (Scientific Reports, 2016)
Values after ≈ are worked out from the molar mass of the structure shown. Read-outs that look alike come from different tables or passages of the source.

Columns and labels:
[1] = biological target: T1, Dictyostelium discoideum myosin II motor domain (DdMD) (Dictyostelium discoideum, UniProt P08799); experiment: biochemical; conditions: for IC50: 20 °C
T1 construct: Dictyostelium discoideum myosin II motor domain (DdMD)
T1 sequence (P08799 86-759 limits assumed): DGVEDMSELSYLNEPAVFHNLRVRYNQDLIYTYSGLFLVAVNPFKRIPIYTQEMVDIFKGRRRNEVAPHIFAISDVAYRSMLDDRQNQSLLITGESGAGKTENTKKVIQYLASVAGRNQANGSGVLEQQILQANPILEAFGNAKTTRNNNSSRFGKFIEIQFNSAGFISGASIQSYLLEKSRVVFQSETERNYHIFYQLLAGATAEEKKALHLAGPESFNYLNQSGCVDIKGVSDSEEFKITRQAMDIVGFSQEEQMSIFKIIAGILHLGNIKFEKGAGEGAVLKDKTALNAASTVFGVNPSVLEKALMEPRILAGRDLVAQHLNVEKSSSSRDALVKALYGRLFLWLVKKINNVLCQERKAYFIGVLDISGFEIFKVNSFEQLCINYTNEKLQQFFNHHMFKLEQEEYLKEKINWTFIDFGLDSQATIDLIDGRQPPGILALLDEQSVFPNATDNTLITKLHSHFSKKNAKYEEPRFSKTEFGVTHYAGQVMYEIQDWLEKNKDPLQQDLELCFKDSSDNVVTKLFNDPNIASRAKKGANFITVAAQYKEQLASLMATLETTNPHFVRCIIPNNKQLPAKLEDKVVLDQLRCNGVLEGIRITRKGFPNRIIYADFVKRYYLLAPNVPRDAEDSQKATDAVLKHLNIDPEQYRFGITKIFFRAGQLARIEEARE
Procedure: Myosin and actin together with the indicated concentration of the inhibitor were pre-incubated for 5 minutes at room temperature and the measurements were initiated with 1 mM ATP. Data were corrected for background ATPase activity of actin. G-actin was prepared accordingly from rabbit skeletal muscle[24] and polymerized by 2 mM MgCl2 for 1 hour at room temperature. Measurements were performed in low salt buffer containing 5 mM HEPES, 2 mM MgCl2, 0.1 mM EGTA and 2 mM DTT at pH 7.2 or assay buffer containing 20 mM HEPES, 40 mM NaCl, 4 mM MgCl2 at pH 7.3 for basal ATPase activity measurements with DdMD.

[2] = pH 7.3
Procedure: (§1) 50 μM of the inhibitors were dissolved in assay buffer (see Experimental Procedures) containing 0.1 or 1 vol/vol% DMSO, centrifuged at the indicated times and the concentration of the supernatants were determined at each time point (Fig. 2a,b).
(§2) The DMSO content was 1%. […] The experiments were repeated three times.

[3] = system: HeLa Kyoto H2B-mCherry eGFP-α-tubulin cells; experiment: Cell growth assay (cell number, cytokinesis)
Procedure: Cells incubated in different concentrations of the inhibitors were counted on each day for three days.

zebrafish embryos = experiment: Lifespan cytotoxicity assay; conditions: all blebbistatin concentrations
Procedure: Transgenic Tg(−8.0cldnb:lynEGFP)^zf106 (cldnb:EGFP)[25] zebrafish (Danio rerio) were maintained in the animal facility of Eötvös Loránd University. For the experiments investigating the skeletal and heart muscle of zebrafish, 6 dpf embryos were used. For cytotoxicity assays, 2 dpf embryos were dechorionated and placed in the indicated reagent concentrations. Embryos were kept in E3 medium (5 mM NaCl, 0.33 mM MgCl2, 0.33 mM CaCl2 and 0.17 mM KCl).
For the fast escape response experiments, 6 dpf embryos were placed in 50 μl drops of E3 medium on a plastic plate. […] 10 taps were carried out with 1 minute intervals every hour for 4 hours. The tapping force was standardized. The videos were recorded by a Ximea Camera (MQ003MG-CM) at 500 fps for 2 s. Data were analyzed by Flote software version 2.1 and maximal angular velocity parameters of C-start reflex were quantified. For the experiments investigating the effect of the inhibitors on the heart muscle of zebrafish, 6 dpf larvae were embedded in 1% agarose and kept in E3 in the presence of 20 μM concentrations of the inhibitors. […] Embryos were considered to be dead when the whole body became necrotic and the heart stopped beating. Dead embryos were removed from the experiment to prevent contamination. Images of zebrafish were captured with a Zeiss Stereo Lumar V12 microscope using a NeoLumar S 0.8x FWD 80mm objective at 50× zoom.

[4] = system: rabbit skeletal, porcine cardiac and scallop striated myosins, vertebrate non-muscle myosin IIs and Dictyostelium discoideum myosin II; design: method as in PMID 15548862; conditions: read-out: IC50 actin-activated ATPase activity; cited from earlier work
Acanthamoeba myosin II = system: Acanthamoeba myosin II; design: method as in PMID 15548862; conditions: read-out: IC50 actin activated ATPase activity; cited from earlier work
[5] = system: rabbit skeletal muscle myosin II; design: method as in PMID 15205456; conditions: cited from earlier work
HeLa cells = system: HeLa cells; design: method as in PMID 15676022; conditions: compared to 100% of the control; cited from earlier work
zebrafish embryo = system: zebrafish embryo; design: method as in PMID 24954740; conditions: after 24 hours of incubation; cited from earlier work
[6] = cited from earlier work
[7] = Photoconversion / photostability under 480 ± 10 nm irradiation; conditions: 5 μM, up to 15 minutes
Procedure: We compared para-aminoblebbistatin’s photostability to blebbistatin’s by irradiating the molecules in assay buffer at 480 ± 10 nm for different lengths of time (which is a typical GFP excitation range) and recorded the absorption spectra afterwards (Fig. 2d).
Their absorbance spectra were measured at each time point.

Procedure for physchem: as §1, §2

SMILES	Maximal inhibition of actin activated ATPase of DdMD [1]	Maximal inhibition of basal ATPase of DdMD [1]	IC50 ([1]; 15 μM actin, read-out: IC50 actin activated ATPase activity of DdMD)	IC50 ([1]; read-out: IC50 basal ATPase of DdMD)	Fold higher IC50 of AmBleb on DdMD ([1]; comparator not named (matches actin activated ratio to Bleb))	Time the supernatant concentration stayed constant ([2]; 298 μM)	Solubility [2]	Solubility (physchem; Solubility in aqueous buffer)	Solubility (physchem; pH 7.3, Solubility)	IC50 ([3]; Homo sapiens, HeLa Kyoto, 72 h, read-out: IC50 of the inhibition of cell proliferation)	Fold weaker IC50 than blebbistatin's (cell proliferation) ([3]; day 3)	Time at which all embryos died (zebrafish embryos)	IC50 [4]	IC50 (Acanthamoeba myosin II)	on-rate constant kon [5]	Motility of HeLa cells on 2D surfaces (HeLa cells)	Toxicity in live zebrafish embryo tests (zebrafish embryo)	Solubility (limited solubility) ([6]; depending on the conditions of the measurements)	Concentration above which slow precipitation is observed ([6]; water)	Photostability: change of absorption spectrum on irradiation [7]
Cc1ccc2c(c1)C(=O)[C@]1(O)CCN(c3ccc(N)cc3)C1=N2 [para-aminoblebbistatin]	80%	90%	6.7 ± 1.9 µM	6.6 ± 2 µM	1.7 times	4 h	426 ± 1.7 µM (≈ 131 µg/mL)	440 µM (≈ 135 µg/mL)	298 ± 2.5 µM (≈ 91.6 µg/mL)	17.8 ± 4.7 µM	2–3 times									
Cc1ccc2c(c1)C(=O)C1(O)CCN(c3ccccc3)C1=N2 (centres unmarked) [blebbistatin]												69 h	0.5 to 5 µM	83 µM	3400 M⁻¹ s⁻¹	~ 140%	highly toxic	7 to 20 µM	above 10 μM	changed markedly
